Experimental data reported in ChEMBL document CHEMBL1123664, “Preparation and antitumor activity of new mitomycin A analogues” (J Med Chem, 1987).
Values joined by “and” are separate entries in the source; they are usually repeats but may differ in a detail not shown here. Equal values may be shown once.

What was measured:
[1] = Partition coefficient (logP); format: physicochemical; settings: octanol/water
P388 [2] = experiment: Antitumor activity against intraperitoneally implanted P388 leukemia cells in mice expressed as ratio of median survival time for treated group to that of control group at an optimal dose of 3.2 mg/kg; format: functional, Mus musculus; settings: route intraperitoneal
P388 [3] = experiment: Antitumor activity against intraperitoneally implanted P388 leukemia cells in mice expressed as […] effective dose at an optimal dose of 3.2 mg/kg; format: functional; settings: Mus musculus, P388, ip, route intraperitoneal, read-out: MED
B16 [4] = experiment: Antitumor activity against subcutaneously B16 melanoma cells in mice expressed as ratio of median survival time for treated group to that of control group at an optimal dose of 0.8 mg/kg; format: functional, Mus musculus; settings: route subcutaneous
B16 [5] = experiment: Antitumor activity against subcutaneously B16 melanoma cells in mice at an optimal dose of 0.8 mg/kg expressed as […] effective dose; format: functional, Mus musculus; settings: route subcutaneous; for minimal effective dose at 0.8 mg/kg: Mus musculus, B16, sc, read-out: MED
P388 [6] = experiment: Antitumor activity against intraperitoneally implanted P388 leukemia cells in mice expressed as ratio of median survival time for treated group to that of control group at an optimal dose of 0.8 mg/kg; format: functional, Mus musculus; settings: route intraperitoneal
P388 [7] = experiment: Antitumor activity against intraperitoneally implanted P388 leukemia cells in mice at an optimal dose of 0.8 mg/kg expressed as […] effective dose; format: functional; settings: Mus musculus, P388, ip, route intraperitoneal, read-out: MED
P388 [8] = experiment: Antitumor activity against intraperitoneally implanted P388 leukemia cells in mice expressed as ratio of median survival time for treated group to that of control group at an optimal dose 0.8 mg/kg; format: functional, Mus musculus; settings: route intraperitoneal
P388 [9] = experiment: Antitumor activity against intraperitoneally implanted P388 leukemia cells in mice at an optimal dose 0.8 mg/kg expressed as […] effective dose; format: functional; settings: Mus musculus, P388, ip, route intraperitoneal, read-out: MED
P388 [10] = experiment: Antitumor activity against intraperitoneally implanted P388 leukemia cells in mice at an optimal dose of 3.2 mg/kg expressed as […] effective dose; format: functional; settings: Mus musculus, P388, ip, route intraperitoneal, read-out: MED
P388 [11] = experiment: Antitumor activity against intraperitoneally implanted P388 leukemia cells in mice expressed as ratio of median survival time for treated group to that of control group at an optimal dose of 1.6 mg/kg; format: functional, Mus musculus; settings: route intraperitoneal
P388 [12] = experiment: Antitumor activity against intraperitoneally implanted P388 leukemia cells in mice at an optimal dose of 1.6 mg/kg expressed as […] effective dose; format: functional; settings: Mus musculus, P388, ip, route intraperitoneal, read-out: MED
B16 [13] = experiment: Antitumor activity against subcutaneously B16 melanoma cells in mice expressed as […] effective dose at an optimal dose of 0.8 mg/kg; format: functional; settings: Mus musculus, B16, sc, route subcutaneous, read-out: MED
P388 [14] = experiment: Antitumor activity against intraperitoneally implanted P388 leukemia cells in mice expressed as ratio of median survival time for treated group to that of control group at an optimal dose of 0.4 mg/kg; format: functional, Mus musculus; settings: route intraperitoneal
P388 [15] = experiment: Antitumor activity against intraperitoneally implanted P388 leukemia cells in mice at an optimal dose of 0.4 mg/kg expressed as […] effective dose; format: functional, Mus musculus; settings: route intraperitoneal; for minimal effective dose at 0.4 mg/kg: Mus musculus, P388, ip, read-out: MED
P388 [16] = experiment: Antitumor activity against intraperitoneally implanted P388 leukemia cells in mice expressed as ratio of median survival time for treated group to that of control group at an optimal dose of 6.4 mg/kg; format: functional, Mus musculus; settings: route intraperitoneal
P388 [17] = experiment: Antitumor activity against intraperitoneally implanted P388 leukemia cells in mice at an optimal dose of 6.4 mg/kg expressed as […] effective dose; format: functional; settings: Mus musculus, P388, ip, route intraperitoneal, read-out: MED
B16 [18] = experiment: (§1) Antitumor activity against subcutaneously B16 melanoma cells in mice expressed as ratio of median survival time for treated group to that of control group at an optimal dose of 1-3 mg/kg; format: functional, Mus musculus
B16 [19] = experiment: Antitumor activity against subcutaneously B16 melanoma cells in mice expressed as ratio of median survival time for treated group to that of control group at an optimal dose of 1.6 mg/kg; format: functional, Mus musculus; settings: route subcutaneous
B16 [20] = experiment: Antitumor activity against subcutaneously B16 melanoma cells in mice at an optimal dose of 1.6 mg/kg expressed as […] effective dose; format: functional; settings: Mus musculus, B16, sc, route subcutaneous, read-out: MED
B16 [21] = experiment: Antitumor activity against subcutaneously B16 melanoma cells in mice expressed as ratio of median survival time for treated group to that of control group at an optimal dose of 0.4 mg/kg; format: functional, Mus musculus; settings: route subcutaneous
B16 [22] = experiment: Antitumor activity against subcutaneously B16 melanoma cells in mice at an optimal dose of 0.4 mg/kg expressed as […] effective dose; format: functional; settings: Mus musculus, B16, sc, route subcutaneous, read-out: MED
B16 [23] = experiment: as §1; format: functional, Mus musculus; remark: listed apart in the source
P388 [24] = experiment: Antitumor activity against intraperitoneally implanted P388 leukemia cells in mice expressed as ratio of median survival time for treated group to that of control group at an optimal dose of 0.2 mg/kg; format: functional, Mus musculus; settings: route intraperitoneal
P388 [25] = experiment: Antitumor activity against intraperitoneally implanted P388 leukemia cells in mice at an optimal dose of 0.2 mg/kg expressed as […] effective dose; format: functional; settings: Mus musculus, P388, ip, route intraperitoneal, read-out: MED
P388 [26] = experiment: Antitumor activity against intraperitoneally implanted P388 leukemia cells in mice expressed as ratio of median survival time for treated group to that of control group given in equally divided doses on days 1,4 and 7; format: functional, Mus musculus

SMILES: CO[C@@]12C(COC(N)=O)C3=C(C(=O)C(C)=C(OCc4ccccc4)C3=O)N1CC1NC12 (stereo not given in full)
- logP [1]: 2.22
- T/C (P388 [2]): 167%
- minimal effective dose at 3.2 mg/kg (P388 [3]): < 0.2 mg/kg

SMILES: COCCOCCOC1=C(C)C(=O)C2=C(C1=O)C(COC(N)=O)[C@@]1(OC)C3NC3CN21 (stereo not given in full)
- logP [1]: 0.32
- T/C (B16 [4]; 0.8 mg/kg): >191% and >265%
- minimal effective dose at 0.8 mg/kg (B16 [5]): 0.4 mg/kg
- MED (B16 [5]): 0.4 mg/kg
- T/C (P388 [6]): 225%
- minimal effective dose at 0.8 mg/kg (P388 [7]): < 0.1 mg/kg

SMILES: CO[C@@]12C(COC(N)=O)C3=C(C(=O)C(C)=C(OCC4CCCCO4)C3=O)N1CC1NC12 (stereo not given in full)
- logP [1]: 1.79
- T/C (P388 [8]): 161%
- minimal effective dose at 0.8 mg/kg (P388 [9]): 0.1 mg/kg

SMILES: CO[C@@]12C(COC(N)=O)C3=C(C(=O)C(C)=C(OCCCCl)C3=O)N1CC1NC12 (stereo not given in full)
- logP [1]: 1.65
- T/C (P388 [2]): 150%
- minimal effective dose at 3.2 mg/kg (P388 [10]): 0.2 mg/kg

SMILES: CO[C@@]12C(COC(N)=O)C3=C(C(=O)C(C)=C(OCCCO)C3=O)N1CC1NC12 (stereo not given in full)
- logP [1]: 0.14
- T/C (P388 [11]): 175%
- minimal effective dose at 1.6 mg/kg (P388 [12]): 0.05 mg/kg

SMILES: CO[C@@]12C(COC(N)=O)C3=C(C(=O)C(C)=C(OCCOCCO)C3=O)N1CC1NC12 (stereo not given in full)
- T/C (B16 [4]): >265%
- minimal effective dose at 0.8 mg/kg (B16 [13]): 0.4 mg/kg
- T/C (P388 [14]): 210%
- minimal effective dose at 0.4 mg/kg (P388 [15]): 0.1 mg/kg

SMILES: CO[C@@]12C(COC(N)=O)C3=C(C(=O)C(C)=C(OCc4ccco4)C3=O)N1CC1NC12 (stereo not given in full)
- logP [1]: 1.6
- T/C (P388 [16]): 139%
- minimal effective dose at 6.4 mg/kg (P388 [17]): 6.4 mg/kg

SMILES: CO[C@@]12C(COC(N)=O)C3=C(C(=O)C(C)=C(OC4CCOC4)C3=O)N1CC1NC12 (stereo not given in full)
- logP [1]: 0.79
- T/C (B16 [18]): 135%
- T/C (B16 [19]): 198%
- minimal effective dose at 1.6 mg/kg (B16 [20]): 1.6 mg/kg
- T/C (P388 [2]): 178%
- minimal effective dose at 3.2 mg/kg (P388 [10]): < 0.05 mg/kg

SMILES: CCOCCOCCOC1=C(C)C(=O)C2=C(C1=O)C(COC(N)=O)[C@@]1(OC)C3NC3CN21 (stereo not given in full)
- logP [1]: 0.82
- T/C (B16 [21]): 196%
- minimal effective dose at 0.4 mg/kg (B16 [22]): 0.2 mg/kg
- T/C (P388 [11]): 167%
- minimal effective dose at 1.6 mg/kg (P388 [12]): < 0.1 mg/kg

SMILES: CO[C@@]12C(COC(N)=O)C3=C(C(=O)C(C)=C(OCCSSCCO)C3=O)N1CC1NC12 (stereo not given in full)
- logP [1]: 1.35
- T/C (B16 [4]): 243%
- T/C (B16 [23]): 136%
- minimal effective dose at 0.8 mg/kg (B16 [5]): 0.2 mg/kg
- T/C (P388 [11]): 259%

SMILES: CO[C@@]12C(COC(N)=O)C3=C(C(=O)C(C)=C(OCCO)C3=O)N1CC1NC12 (stereo not given in full)
- T/C (B16 [21]): 178%
- minimal effective dose at 0.4 mg/kg (B16 [22]): 0.2 mg/kg
- T/C (P388 [24]): 217%
- T/C (P388 [14]; 0.4 mg/kg): 178% and >328%
- minimal effective dose at 0.2 mg/kg (P388 [25]): < 0.1 mg/kg
- minimal effective dose at 0.4 mg/kg (P388 [15]): 0.0063 mg/kg
- MED (P388 [15]): 0.0063 mg/kg
- T/C (P388 [26]): 194%

SMILES: CO[C@@]12C(COC(N)=O)C3=C(C(=O)C(C)=C(OCCSCCO)C3=O)N1CC1NC12 (stereo not given in full)
- logP [1]: 1.07
- T/C (P388 [6]): 250%
- minimal effective dose at 0.8 mg/kg (P388 [7]): < 0.1 mg/kg

SMILES: CO[C@@]12C(COC(N)=O)C3=C(C(=O)C(C)=C(OCC4CCC4)C3=O)N1CC1NC12 (stereo not given in full)
- logP [1]: 2.26
- T/C (P388 [11]): 144%
- minimal effective dose at 1.6 mg/kg (P388 [12]): 0.4 mg/kg
